Legend:
[1] = system: opiate receptor (stereospecific naloxone binding); assay: Inhibition of stereospecific naloxone binding (Pert and Snyder technique); conditions: for ID50, concentration required to inhibit 50% of stereospecific naloxone binding: sodium 100 mM
Experimental: B., and Snyder, S., Proceedings of the National Academy of Sciences, Vol. 70, pp. 2243-2247 (1973). The potency is measured as ID50, defined as the concentration required to inhibit 50% of stereospecific naloxone binding. The concentration of sodium was 100 mM. The effectiveness is inversely related to the ID50 value.

opiate receptor sites = conditions: Hughes et al, Nature 258, 577-579 (1975); cited from earlier work

| SMILES | ID50, concentration required to inhibit 50% of stereospecific naloxone binding [1] | Opiate agonist potency, comparison in words (opiate receptor sites) | Potency relative to the more potent sequence of enkephalin ([1]; from ID50 values of Table 1) |
| --- | --- | --- | --- |
| CSCC[C@H](NC(=O)[C@H](Cc1ccccc1)NC(=O)CNC(=O)CNC(=O)[C@@H](N)Cc1ccc(O)cc1)C(=O)O [Enkephalin sequence one, H-Tyr-Gly-Gly-Phe-Met-OH] | 0.4 | more potent than sequence two |  |
| CC(C)C[C@H](NC(=O)[C@H](Cc1ccccc1)NC(=O)CNC(=O)CNC(=O)[C@@H](N)Cc1ccc(O)cc1)C(=O)O [Enkephalin sequence two, H-Tyr-Gly-Gly-Phe-Leu-OH] | 1.4 |  |  |
| CSCC[C@H](NC(=O)[C@H](Cc1ccccc1)NC(=O)CNC(=O)CNC(=O)[C@@H](N)Cc1ccc(O)cc1)C(N)=O [Subject Pentapeptide, H-Tyr-Gly-Gly-Phe-Met-NH2] | 0.2 |  | twice as potent as the more potent sequence of enkephalin |
